Laboratory results published in patent US7956196B2, “1,3-dihydro-benzimidazol-2-ylidene amines as inhibitors of respiratory syncytial virus replication” (Tibotec Pharmaceuticals Ltd., priority 2005, dated 2011).
Where two headings read alike, the source gives them in different places.

Legend:
[1] = test system: Respiratory Syncytial Virus; assay: In vitro screening for activity against RSV, automated tetrazolium-based (MTT) colorimetric assay in HeLa cells; assay type: cell-based; details: human respiratory syncytial virus, 168 h, read-out: pIC50 (converted)
Description: In vitro screening of compounds of formula (I) for activity against RSV. The percent protection against cytopathology caused by viruses (antiviral activity or EC50) achieved by tested compounds and their cytotoxicity (CC50) are both calculated from dose-response curves. The selectivity of the antiviral effect is represented by the selectivity index (SI), calculated by dividing the CC50 (cytotoxic dose for 50% of the cells) by the EC50 (antiviral activity for 50% of the cells). The tables in the above experimental part list the category to which each of the prepared compounds belong: Compounds belonging to activity category “A” have a pEC50 (-log of EC50 when expressed in molar units) equal to or more than 7. Compounds belonging to activity category “B” have a pEC50 value between 6 and 7.
Automated tetrazolium-based colorimetric assays were used for determination of EC50 and CC50 of test compounds. Flat-bottom, 96-well plastic microtiter trays were filled with 180 μl of Eagle's Basal Medium, supplemented with 5% FCS (0% for FLU) and 20 mM Hepes buffer. Subsequently, stock solutions (7.8×final test concentration) of compounds were added in 45 μl volumes to a series of triplicate wells so as to allow simultaneous evaluation of their effects on virus- and mock-infected cells. Five five-fold dilutions were made directly in the microtiter trays using a robot system. Untreated virus controls, and HeLa cell controls were included in each test. Approximately 100 TCID50 of Respiratory Syncytial Virus was added to two of the three rows in a volume of 50 μl. The same volume of medium was added to the third row to measure the cytotoxicity of the compounds at the same concentrations as those used to measure the antiviral activity. After two hours of incubation, a suspension (4×10^5 cells/ml) of HeLa cells was added to all wells in a volume of 50 μl. The cultures were incubated at 37° C. in a 5% CO2 atmosphere. Seven days after infection the cytotoxicity and the antiviral activity was examined spectrophotometrically. To each well of the microtiter tray, 25 μl of a solution of MTT (3-(4,5-dimethylthiazol-2-yl)-2,5-diphenyltetrazolium bromide) was added. The trays were further incubated at 37° C. for 2 hours, after which the medium was removed from each cup. Solubilization of the formazan crystals was achieved by adding 100 μl 2-propanol. Complete dissolution of the formazan crystals were obtained after the trays have been placed on a plate shaker for 10 min. Finally, the absorbances were read in an eight-channel computer-controlled photometer (Multiskan MCC, Flow Laboratories) at two wavelengths (540 and 690 nm). The absorbance measured at 690 nm was automatically subtracted from the absorbance at 540 nm, so as to eliminate the effects of non-specific absorption.
The percent protection against cytopathology caused by viruses (antiviral activity or EC50) achieved by tested compounds and their cytotoxicity (CC50) were both calculated from dose-response curves. The selectivity of the antiviral effect is represented by the selectivity index (SI), calculated by dividing the CC50 (cytotoxic dose for 50% of the cells) by the EC50 (antiviral activity for 50% of the cells).

[2] = protection against RSV cytopathology in HeLa cells, MTT readout seven days after infection

Row | SMILES | IC50 [1, 2] [nM] | melting point [°C] | IC50 ([1]; HeLa) [nM]
1 | N#Cc1ccc(Cn2c(=NCCc3ccc(O)cc3)n(Cc3cccc4cccnc34)c3ccccc32)cc1 [Compound 4] | 12.6 | 160 | –
2 | N#Cc1ccc(Cn2c(=NC(=O)c3ccc(Br)cc3)n(Cc3cccc4cccnc34)c3ccccc32)cc1 [Compound 26] | 10000 | 125 | –
3 | N#Cc1ccc(Cn2c(=NC(=O)c3ccc(Cl)cc3)n(Cc3cccc4cccnc34)c3ccccc32)cc1 [Compound 21] | 398 | 154 | –
4 | COc1ccc(C(=O)N=c2n(Cc3ccc(C#N)cc3)c3ccccc3n2Cc2cccc3cccnc23)cc1 [Compound 27] | – | 150 | 20000

More lines, main results first:

Row | IC50 [1, 2] [nM] | melting point [°C] | SMILES | IC50 ([1]; HeLa) [nM]
5 | > 100000 | 182 | N#Cc1ccc(Cn2c(=NC(=O)c3ccc(C#N)cc3)n(Cc3cccc4cccnc34)c3ccccc32)cc1 [Compound 31] | –
6 | 3.16 | 195 | Cc1ccc(CCCO)c(NCc2ccc3c(c2)n(Cc2nc(C)ccc2O)c(=N)n3C)c1 [Compound 58] | –
7 | 1580 | 204 | COC(=O)c1ccc(Cn2c(=NC(=O)c3cc(C(F)(F)F)cc(C(F)(F)F)c3)n(Cc3cccc4cccnc34)c3ccccc32)cc1 [Compound 39] | –
